In ChEMBL document CHEMBL4428103, “Potential therapeutic application of small molecule with sulfonamide for chondrogenic differentiation and articular cartilage repair” (Bioorg Med Chem Lett, 2016) one finds Activity and fold change (FC) data, which are given here for 28 molecules.

For experiment [1], the species on record is Homo sapiens. Kind of experiment: Chondrogenic activity in human ASC assessed as increase in aggrecan expression at 1 uM incubated for 11 days by sandwich ELISA relative to control. Type of experiment: functional.
The species entered for experiment [2] is Homo sapiens. Briefly: Chondrogenic activity in human ASC assessed as increase in aggrecan expression at 10 uM incubated for 11 days by sandwich ELISA relative to control. Type of experiment: functional.
Experiment [3] is filed under the species Rattus norvegicus. Kind of experiment: Upregulation of aggrecan expression in collagenase2-induced osteoarthritis rat model injected with 10 uM compound on day 7 and 21 by immunohistochemistry. The class given is functional, organism-based.
Experiment [4] is filed under the species Homo sapiens. Briefly: Induction of differentiation in human ASC after 11 days by alcian blue staining based analysis relative to control. The class given is functional.
For experiment [5], the species on record is Homo sapiens. Briefly: Chondrogenic activity in human ASC assessed as increase in aggrecan expression at 10 uM incubated for 11 days in presence of MEK inhibitor U0126 by sandwich ELISA relative to control. The class given is functional.
Experiment [6] is filed under the species Rattus norvegicus. Kind of experiment: Induction of cartilage repair in collagenase2-induced osteoarthritis rat model assessed as increase in proteoglycan content injected with 10 uM compound-treated human ASC + on day 7 and 21 by safranin O/fast green staining-based optical microscopic analysis. The class given is functional, organism-based.
For experiment [7], the species on record is Rattus norvegicus. Kind of experiment: Upregulation of aggrecan expression in collagenase2-induced osteoarthritis rat model injected with 10 uM compound-treated human ASC on day 7 and 21 by immunohistochemistry. Type of experiment: functional, organism-based.
Experiment [8] is filed under the species Homo sapiens. Briefly: Upregulation of ERK phosphorylation in human ASC at 0.1 to 1 uM by Western blot analysis. The note with it: TDE = time-dependent effect.
The species entered for experiment [9] is Rattus norvegicus. Kind of experiment: Induction of cartilage repair in collagenase2-induced osteoarthritis rat model assessed as recovery of cartilage thickness at 10 uM on day 7 and 21 by safranin O/fast green staining-based optical microscopic analysis. The class given is functional, organism-based.
Experiment [10] is filed under the species Homo sapiens. Kind of experiment: Chondrogenic activity in human ASC assessed as increase in aggrecan expression incubated for 11 days by sandwich ELISA relative to control. Type of experiment: functional.
Experiment [11] is filed under the species Rattus norvegicus. Kind of experiment: Induction of cartilage repair in collagenase2-induced osteoarthritis rat model assessed as recovery of cartilage thickness injected with 10 uM compound-treated human ASC on day 7 and 21 by safranin O/fast green staining-based optical microscopic analysis. The class given is functional, organism-based.

Structures are written as SMILES. Active and inactive are the calls of the source. No cut-off for these calls is given here.

Take `O=S(=O)(Nc1ccc(O)c(F)c1)c1ccc2ccccc2c1`: the outcome in the experiment listed under Homo sapiens [1] was inactive.

As to `CC(C)(C)c1ccc(S(=O)(=O)NC2CCC(CCO)CC2)cc1` (configuration not stated), the result in the experiment listed under Homo sapiens [1] and in the experiment filed under Homo sapiens [2] was inactive.

As for `CC(C)(C)c1ccc(S(=O)(=O)Nc2ccc(O)cc2Cl)cc1`, the result in the experiment listed under Homo sapiens [1] was inactive.

Turning to `CC(C)(C)c1ccc(S(=O)(=O)Nc2cccc(O)c2)cc1`, the result in the experiment listed under Homo sapiens [1] was inactive.

Regarding `O=S(=O)(NCCc1ccc(O)c(O)c1)c1ccc(-c2ccccc2)cc1`, the outcome in the experiment listed under Homo sapiens [1] and in the experiment listed under Homo sapiens [2] was inactive.

On to `O=S(=O)(Nc1cccc2ccc(O)cc12)c1cccc2cccnc12`, for which the fold change (FC) in the experiment listed under Homo sapiens [1] and in the experiment listed under Homo sapiens [2] was 2 in each case.

Regarding `CC(C)(C)c1ccc(S(=O)(=O)Nc2ccc(O)c(C(=O)O)c2)cc1`, the fold change (FC) in the experiment listed under Homo sapiens [1] and in the experiment listed under Homo sapiens [2] was 2 each time.

As to `O=S(=O)(Nc1ccc(O)c(F)c1)c1ccc(-c2ccccc2)cc1`, in the experiment listed under Homo sapiens [1], the outcome was inactive.

On to `Cc1ccc(S(=O)(=O)Nc2ccc(O)c3ccccc23)cc1`, for which the fold change (FC) in the experiment filed under Homo sapiens [1] and in the experiment filed under Homo sapiens [2] was 2 each time.

For `Cc1ccc(S(=O)(=O)Nc2cccc3ccc(O)cc23)cc1`, the result in the experiment listed under Homo sapiens [1] was inactive. Further, the result in the experiment filed under Homo sapiens [2] was Active.

For the molecule `O=S(=O)(Nc1ccc(O)cc1Cl)c1ccc(-c2ccccc2)cc1`, the outcome in the experiment filed under Homo sapiens [1] was inactive.

For the molecule `O=S(=O)(NCCc1ccc(O)c(O)c1)c1ccc2ccccc2c1`, the result in the experiment listed under Homo sapiens [1] and in the experiment listed under Homo sapiens [2] was inactive.

As for `CC(C)(C)c1ccc(S(=O)(=O)Nc2ccc(O)cc2F)cc1`, in the experiment filed under Homo sapiens [1], the result was inactive.

Consider `O=S(=O)(NC1CCC(CCO)CC1)c1ccc(-c2ccccc2)cc1` (configuration not stated), for which the outcome in the experiment listed under Homo sapiens [1] and in the experiment listed under Homo sapiens [2] was inactive.

In the case of `O=S(=O)(Nc1ccc(O)cc1Cl)c1ccc2ccccc2c1`, the outcome in the experiment filed under Homo sapiens [1] was inactive. Further, the result in the experiment filed under Homo sapiens [2] was Active.

On to `CCN(c1cc(O)ccc1C)S(=O)(=O)c1ccc2ccccc2c1`, for which the outcome in the experiment filed under Homo sapiens [1] and in the experiment listed under Homo sapiens [2] was inactive.

For the molecule `O=S(=O)(Nc1ccc(O)cc1)c1cccc2cccnc12`, the fold change (FC) in the experiment filed under Homo sapiens [1] was determined as 2; in the experiment filed under Homo sapiens [4] it was 3; in the experiment listed under Homo sapiens [2], 2. For the same molecule, the result in the experiment filed under Rattus norvegicus [3], in the experiment listed under Rattus norvegicus [6], in the experiment filed under Rattus norvegicus [7], in the experiment listed under Rattus norvegicus [9] and in the experiment listed under Rattus norvegicus [11] was Active. In addition, the outcome in the experiment filed under Homo sapiens [5] was inactive. For the same molecule, the Activity result in the experiment listed under Homo sapiens [8] was “Tde”; in the experiment filed under Homo sapiens [10], “Dose-dependent effect”.

In the case of `CCN(c1cc(O)ccc1C)S(=O)(=O)c1ccc(C(C)(C)C)cc1`, the outcome in the experiment listed under Homo sapiens [1] and in the experiment filed under Homo sapiens [2] was inactive.

`O=S(=O)(Nc1ccc(O)cc1F)c1ccc2ccccc2c1`: in the experiment filed under Homo sapiens [1], the result was inactive. In addition, the outcome in the experiment listed under Homo sapiens [2] was Active.

For the molecule `O=S(=O)(Nc1ccc(O)cc1)c1ccc2ccccc2c1`, the result in the experiment filed under Homo sapiens [1] and in the experiment filed under Homo sapiens [2] was inactive.

As for `O=[N+]([O-])c1cc(NS(=O)(=O)c2ccc3ccccc3c2)ccc1O`, the result in the experiment filed under Homo sapiens [1] was inactive. Also, the result in the experiment filed under Homo sapiens [2] was Active.

In the case of `O=C(O)c1cc(NS(=O)(=O)c2cccc3cccnc23)ccc1O`, the fold change (FC) in the experiment listed under Homo sapiens [1] and in the experiment filed under Homo sapiens [2] was 2 throughout.

For the molecule `O=S(=O)(Nc1ccc(O)cc1F)c1ccc(-c2ccccc2)cc1`, the outcome in the experiment filed under Homo sapiens [1] was inactive.

Take `O=S(=O)(NC1CCC(CCO)CC1)c1ccc2ccccc2c1` (configuration not stated): the outcome in the experiment filed under Homo sapiens [1] and in the experiment listed under Homo sapiens [2] was inactive.

In the case of `CC(C)(C)c1ccc(S(=O)(=O)NCCc2ccc(O)c(O)c2)cc1`, the outcome in the experiment listed under Homo sapiens [1] and in the experiment filed under Homo sapiens [2] was inactive.

`Cc1ccc(S(=O)(=O)Nc2cccc3c(O)cccc23)cc1`: in the experiment filed under Homo sapiens [1], the result was inactive. In the experiment listed under Homo sapiens [2], the outcome was Active.

As for `O=S(=O)(Nc1cccc2c(O)cccc12)c1ccc(-c2ccccc2)cc1`, the fold change (FC) in the experiment filed under Homo sapiens [1] and in the experiment filed under Homo sapiens [2] was 2 in each case.

Consider `CC(C)(C)c1ccc(S(=O)(=O)Nc2ccc(O)c(F)c2)cc1`, for which, in the experiment listed under Homo sapiens [1], the result was inactive.
